Measurements: patent publication US20230107216A1, “PANTETHEINE DERIVATIVES AND USES THEREOF” (Comet Therapeutics, Inc., priority 2018, published 2023)
Like-named read-outs stand apart in the source and are kept apart here.

Key:
HepG2 cells [1] = assay: Mitochondrial membrane potential (MITO-ID MP detection Kit); format: cell-based; conditions: Homo sapiens, 168 h, 7 days; for activation at 10 µM: read-out: % increase in Mitochondrial Membrane Potential; for inhibition at 50 µM / inhibition at 10 µM: read-out: % decrease in Mitochondrial Membrane Potential
Method in brief: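 Cells plated at 160000 cells/mL in DMEM with 10% FBS and 1% Pen-Strep, adhered overnight at 37° C., 5% CO2. Exposure to test compounds (50-10 μM) or 0.2% DMSO for 7 days without media change; membrane potential measured with MITO-ID MP detection kit per manufacturer.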

[2] = test system: primary fibroblasts (healthy controls and PA, MMA, BCKDK, PDH, VLCAD, LS, PC, GA, VLCFA, KSS, FXN, HD); assay: Measurement of ROS (H2DCFDA) in primary fibroblasts; format: cell-based, human; conditions: Homo sapiens, procedure Example 812
Method in brief: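 Patient and healthy-control primary fibroblasts switched to supplemented DMEM 24 h before assay, then treated with compound (10 μM) plus H2DCFDA (22 μM) for 2 h (PA, MMA lines) or 24 h (other lines). Kinetic fluorescence at 492/527 nm over 60 min; only live cells analysed.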

HepG2 cells [3] = assay: Glucose uptake (Glucose Uptake-Glo); format: cell-based; conditions: Homo sapiens, 10 uM, read-out: % increase in Glucose Uptake
[4] = Fibroblast, BCKD GM00612, Assay Condition A, read-out: Decreased ROS by at least 10%
[5] = Fibroblast, VLCFA GM13262, Assay Condition C, read-out: Decreased ROS by at least 30%
[6] = FXN GM04078, Assay Condition C, read-out: Decreased ROS by at least 10%
[7] = FXN GM04078, Assay Condition C, read-out: Decreased ROS by at least 30%
[8] = Fibroblast, BCKD GM00649, Assay Condition C, read-out: Decreased ROS by at least 10%
[9] = Fibroblast, BCKD GM00649, Assay Condition C, read-out: Decreased ROS by at least 30%
[10] = Fibroblast, VLCAD GM17475, Assay Condition C, read-out: Decreased ROS by at least 10%
[11] = Fibroblast, PDH GM01503, Assay Condition C, read-out: Decreased ROS by at least 10%
[12] = Fibroblast, PDH GM01503, Assay Condition C, read-out: Decreased ROS by at least 30%

Compound	activation at 10 µM (HepG2 cells [1])	inhibition at 50 µM (HepG2 cells [1])	inhibition at 10 µM [2, 4]	inhibition at 10 µM [2, 6]	inhibition at 10 µM [2, 7]	also measured
COC(=O)CC[C@H](N)C(=O)SCCNC(=O)CCNC(=O)[C@H](O)C(C)(C)CO [Compound 411]	10%	> 20%	≥ 10%	≥ 10%	≥ 30%	inhibition at 10 µM [2, 5]: ≥ 30%
COC(=O)/C=C/C(=O)SCCNC(=O)CCNC(=O)[C@H](O)C(C)(C)COP(=O)(O)O [Compound 73, methyl (R,E)-4-((2-(3-(2-hydroxy-3,3-dimethyl-4-(phosphonooxy)butanamido)propanamido)ethyl)thio)-4-oxobut-2-enoate]	–	> 30%	–	–	–	inhibition at 10 µM ([2]; Fibroblast, NPC1 GM22879, Assay Condition C, read-out: Decreased ROS by at least 10%): ≥ 10%
CC(C)(COC(=O)CCC(=O)O)[C@@H](O)C(=O)NCCC(=O)NCCS [Compound 1310, (R)-4-(3-hydroxy-4-((3-((2-mercaptoethyl)amino)-3-oxopropyl)amino)-2,2-dimethyl-4-oxobutoxy)-4-oxobutanoic acid]	20%	> 30%	≥ 10%	–	–	inhibition at 10 µM [2, 5]: ≥ 30%
CCC(C)C(=O)CC(=O)SCCNC(=O)CCNC(=O)[C@H](O)C(C)(C)CO (stereo partly drawn) [Compound 1240, S-(2-(3-((R)-2,4-dihydroxy-3,3-dimethylbutanamido)propanamido)ethyl) 4-methyl-3-oxohexanethioate]	–	> 50%	≥ 10%	≥ 10%	≥ 30%	inhibition at 10 µM [2, 5]: ≥ 30%
CC(C)(CO)[C@@H](O)C(=O)NCCC(=O)NCCSC(CC(=O)OCC[N+](C)(C)C)C(=O)O (stereo partly drawn) [Compound 51, [2-([3-carboxy-3-[(2-[3-[(2R)-2,4-dihydroxy-3,3-dimethylbutanamido]propanamido]ethyl)sulfanyl]propanoyl]oxy)ethyl]trimethylazanium]	> 10%	–	–	–	–	activation at 10 µM (HepG2 cells [3]): ≥ 30%
COC(=O)C(C)C(=O)SCCNC(=O)CCNC(=O)[C@H](O)C(C)(C)CO (some centres unmarked) [Compound 405]	–	> 50%	–	–	–	inhibition at 10 µM [2, 8]: ≥ 10%; inhibition at 10 µM [2, 9]: ≥ 30%
CC(C)(CO)[C@@H](O)C(=O)NCCC(=O)NCCSC(=O)CC(O)C(=O)O (some centres unmarked) [Compound 39]	–	> 50%	–	–	–	inhibition at 10 µM [2, 10]: ≥ 10%
CC(O)C(C(=O)SCCNC(=O)CCNC(=O)[C@H](O)C(C)(C)CO)C(C)O (stereo partly drawn) [Compound 1285, (2R)-2,4-dihydroxy-N-[2-[(2-[[3-hydroxy-2-(1-hydroxyethyl)butanoyl]sulfanyl]ethyl)carbamoyl]ethyl]-3,3-dimethylbutanamide]	–	> 30%	≥ 10%	–	–	activation at 10 µM (HepG2 cells [3]): ≥ 30%; inhibition at 10 µM ([2]; Fibroblast, NPC1 GM22879, Assay Condition C, read-out: Decreased ROS by at least 30%): ≥ 30%
CC1(CC(=O)SCCNC(=O)CCNC(=O)[C@H](O)C(C)(C)CO)OCCO1 [Compound 1252, (R)—S-(2-(3-(2,4-dihydroxy-3,3-dimethylbutanamido)propanamido)ethyl)-2-(2-methyl-1,3-dioxolan-2-yl)ethanethioate]	> 20%	–	–	–	–	inhibition at 10 µM [2, 11]: ≥ 10%; inhibition at 10 µM [2, 12]: ≥ 30%
C[C@@H](O)CC(=O)SCCNC(=O)CCNC(=O)[C@H](O)C(C)(C)CO [Compound 38, S-2-{3-[(R)-2,4-dihydroxy-3,3-dimethylbutyrylamino]propionylamino} ethyl (R)-3-hydroxybutanethioate]	–	> 30%	–	≥ 10%	≥ 30%	inhibition at 10 µM [2, 11]: ≥ 10%; inhibition at 10 µM [2, 12]: ≥ 30%
CC(O)CC(O)CC(=O)SCCNC(=O)CCNC(=O)[C@H](O)C(C)(C)CO (some centres unmarked) [Compound 400]	> 20%	–	–	≥ 10%	≥ 30%	inhibition at 10 µM [2, 8]: ≥ 10%; inhibition at 10 µM [2, 9]: ≥ 30%
CC(C)(CO)[C@@H](OC(=O)CCC(=O)O)C(=O)NCCC(=O)NCCS [Compound 1311, (R)-4-((4-hydroxy-1-((3-((2-mercaptoethyl)amino)-3-oxopropyl)amino)-3,3-dimethyl-1-oxobutan-2-yl)oxy)-4-oxobutanoic acid]	> 10%	–	≥ 10%	≥ 10%	≥ 30%	inhibition at 10 µM [2, 5]: ≥ 30%
CC(O)CC(O)CC(O)CC(=O)SCCNC(=O)CCNC(=O)[C@H](O)C(C)(C)CO (some centres unmarked) [Compound 401]	> 10%	–	–	–	–	inhibition at 10 µM [2, 10]: ≥ 10%; inhibition at 10 µM ([2]; Fibroblast, VLCAD GM17475, Assay Condition C, read-out: Decreased ROS by at least 30%): ≥ 30%
COC(=O)CCC(=O)SCCNC(=O)CCNC(=O)[C@H](O)C(C)(C)CO [Compound 4, Methyl (R)-4-((2-(3-(2,4-dihydroxy-3,3-dimethylbutanamido)propanamido)ethyl)thio)-4-oxobutanoate]	–	–	–	–	–	inhibition at 10 µM (HepG2 cells [1]): > 30%; inhibition at 10 µM [2, 8]: ≥ 10%; inhibition at 10 µM [2, 9]: ≥ 30%
CC(C)(CO)[C@@H](O)C(=O)NCCC(=O)NCCSC(=O)C1CCC(=O)N1 (stereo partly drawn) [Compound 1227, S-2-{3-[(R)-2,4-dihydroxy-3,3-dimethylbutyrylamino]propionylamino}ethyl 5-oxo-2-pyrrolidinecarbothioate]	–	–	–	–	–	inhibition at 10 µM (HepG2 cells [1]): > 30%
